Results from patent publication US9174979B2, “Phenanthroindolizidine compound and NFκB inhibitor containing same as active ingredient” (KABUSHIKI KAISHA YAKULT HONSHA, priority 2008, dated 2015).
Marks after values point to notes of the source that are not given here.

Legend:
NFκB = NFκB luciferase reporter assay in SW480/NRE-Luc cells stimulated with TNFα; format: cell-based, human; conditions: Homo sapiens, SW480, read-out: NFκB inhibitory activity IC50
From the text: (§1) The action of the phenanthroindolizidine alkaloid compound of the present invention on the NFκB activity was studied in a luciferase assay. Human colon cancer SW480 cells were transfected with pNFκB-Luc Plasmid (Stratagene), which is a reporter vector in which a five-time tandem repeat of the NFκB responsive element (NRE) is integrated into the upstream of the luciferase gene, using Lipofectamine 2000 (Invitrogen Corporation) in accordance with the attached operating procedure. Subsequently, the cells were cultured in an RPMI1640 medium containing 10% FBS, 100 U/mL penicillin, 100 μg/mL streptomycin, and 0.5 mg/mL G418 to produce SW480 cells having the luciferase gene, the expression of which is regulated by NRE, stably introduced therein (SW480/NRE-Luc cells). Likewise, SW480 cells were transfected with pGL3-Control Vector (Promega Corporation), which is a reporter vector in which the SV40 promoter is integrated into the upstream of the luciferase gene, to produce SW480 cells having the luciferase gene, the expression of which is regulated by the SV40 promoter, stably introduced therein (SW480/SV40-Luc cells). The SW480/NRE-Luc cells or the SW480/SV40-Luc cells were suspended in an RPMI1640 medium containing 10% FBS, 100 U/mL penicillin, and 100 μg/mL streptomycin (10% FBS/RPMI1640), and then seeded in a 96-well microplate, followed by culturing under conditions of 5% CO2 and at 37° C. (5000 cells/well). After an overnight culture, the compound of the present invention was added, followed by culturing for one hour. Further, 50 ng/mL TNFα (Sigma-Aldrich Corporation) was added, followed by culturing for four hours. Subsequently, a Steady-Glo Luciferase Assay reagent (Promega Corporation) was added, and the luminescent intensity was detected by SpectraMax M5e (Molecular Devices, Inc.) to measure the intracellular luciferase activity. It is to be noted that the action of the compound of the present invention on the NFκB activity or the SV40 promoter activity was shown as IC50 values (the concentration of a test compound needed for 50% inhibition of the induction of the luciferase expression).

[1] = test system: mouse fibrosarcoma Meth A cells; test: Antitumor effect in mice transplanted with mouse fibrosarcoma Meth A cells; format: in vivo; conditions: intravenous on days 1, 5, 9, BALB/c mice, tumor weight on day 21
Protocol: The antitumor effect of the phenanthroindolizidine alkaloid compound of the present invention in vivo was studied using mice transplanted with mouse fibrosarcoma Meth A cells. Meth A cells were transplanted subcutaneously in the inguinal region of male 7-week-old BALB/c mice (2.5×10^5 cells/mouse). Subsequently, on days 1, 5, and 9, the compound of the present invention was intravenously administered. To a control group, physiological saline as a solvent, was administered. On day 21 after the cell transplantation, tumor was excised and measured for its weight, and subsequently a tumor growth-inhibition rate IR (%) was obtained by the following formula. Tumor growth-inhibition rate IR(%)=(1−the weight of the tumor in an administration group/the weight of the tumor in a control group)×100

[2] = test system: human non-small cell lung cancer A549 cells; test: Inhibitory action on the proliferation of A549 cells; format: cell-based; conditions: Homo sapiens, A549; 96 hours culture, TetraColor ONE
Protocol: (§2) The action of the phenanthroindolizidine alkaloid compound of the present invention on the proliferation of human colon cancer SW480 cells, HT-29 cells, and human non-small cell lung cancer A549 cells was studied. The SW480 cells were suspended in a 10% FBS/RPMI1640 and then seeded in a 96-well microplate, followed by culturing in 5% CO2 at 37° C. (2000 cells/well). The A549 cells and the HT-29 cells were each suspended in a DMEM medium containing 10% FBS, 100 U/mL penicillin, and 100 μg/mL streptomycin (10% FBS/DMEM) and a DMEM F-12 HAM medium containing 10% FBS, 100 U/mL penicillin, and 100 μg/mL streptomycin (10% FBS/DMEM F12 HAM), and then seeded in 96-well microplates, followed by culturing in 5% CO2 at 37° C. (1000 cells/well). After an overnight culture, the compound of the present invention was added, followed by further culturing for 48 hours (SW480 cells) and 96 hours (A549 cells and HT-29 cells). After culturing, the number of viable cells was counted using TetraColor ONE (Seikagaku Corporation) in accordance with the attached operating procedure. The results were expressed as the concentration of a test compound needed for 50% inhibition of the proliferation of the cells (IC50).

[3] = test system: human colon cancer SW480 cells; test: Inhibitory action on the proliferation of SW480 cells; format: cell-based; conditions: Homo sapiens, SW480; 48 hours culture, TetraColor ONE
Protocol: as §2

[4] = test system: human colon cancer HT-29 cells; test: Inhibitory action on the proliferation of HT-29 cells; format: cell-based; conditions: Homo sapiens, HT-29; 96 hours culture, TetraColor ONE
Protocol: as §2

mice = test: Animal toxicity test in mice transplanted with Meth A cells; format: in vivo, mouse; conditions: intravenous on days 1, 5, 9, observed for three weeks
Protocol: Also, the toxicity of known phenanthroindolizidine alkaloid compounds in mice, namely (12aS,13S)-6,7-dimethoxy-9,10,11,12,12a,13-hexahydro-9a-aza-cyclopenta[b]triphenylene-3,13-diol (known compound 1; refer to WO01/023384) and (12aS,13S)-3,6,7-trimethoxy-9,10,11,12,12a,13-hexahydro-9a-aza-cyclopenta[b]triphenylene-13-ol (known compound 2; refer to Planta Med., 2002, 68: 186-188), was simultaneously studied. To a control group, a physiological saline solution as a solvent, was administered.

SV40 promoter = SV40 promoter luciferase reporter assay in SW480/SV40-Luc cells; format: cell-based, human; conditions: Homo sapiens, SW480, read-out: SV40 promoter inhibitory activity IC50
From the text: as §1

[5] = test system: mice with TPA-induced ear edema; test: Anti-inflammatory effect in mice with TPA-induced ear edema; format: in vivo, mouse; conditions: intraperitoneal, 30 minutes before TPA 5 μg/ear; ICR mice; four hours after TPA
Protocol: The anti-inflammatory effect of the phenanthroindolizidine alkaloid compound of the present invention in vivo was studied using mice with phorbol 12-myristate 13-acetate (TPA)-induced ear edema. Compound 11, a compound of the present invention, was intraperitoneally administered to male 6-week-old ICR mice, and after 30 minutes, TPA (Sigma-Aldrich Corporation) dissolved in acetone was applied to the front and back of the right ear of the mice (5 μg/ear). Four hours after application of TPA, the thickness of the auricle was measured by a dial thickness gauge (Ozaki Mfg Co. Ltd.). A control group was administered with a 5% glucose solution as a solvent.

[6] = Measurement of solubility; conditions: saline or isotonic
From the text: In in vivo studies, the phenanthroindolizidine alkaloid compounds were used in the form of a salt.

[7] = test system: human colon cancer HCT116 cells; test: Antitumor effect in mice transplanted with human colon cancer HCT116 cells; format: in vivo; conditions: intraperitoneal on days 1 to 5 and 8 to 12, BALB/c nude mice, tumor weight on day 21
From the text: The antitumor effect of the phenanthroindolizidine alkaloid compound of the present invention in vivo was studied using mice transplanted with human colon cancer HCT116 cells. HCT116 cells were transplanted subcutaneously in the inguinal region of male 6-week-old BALB/c nude mice (2×10^6 cells/mouse). On days 1 to 5 and on days 8 to 12 after the time at which the estimated tumor volume obtained by 1/2ab^2 (a and b indicate the major axis and the minor axis of tumor, respectively) reached approximately 100 mm^3 (day 0), the compound of the present invention was administered (intraperitoneal administration). To a control group, a 5% glucose solution as a solvent, was administered. On day 21, tumor was excised and measured for its weight, and subsequently a tumor proliferation-inhibition rate IR (%) was calculated.

Row | Molecule | IC50 (NFκB) [ng/mL] | Tumor growth inhibition rate IR ([1]; total dose 25 mg/kg) | Tumor growth inhibition rate IR ([1]; total dose 50 mg/kg) | IC50 [2] [ng/mL] | IC50 [3] [ng/mL] | IC50 [4] [ng/mL] | Mortality rate (mice; total dose 25 mg/kg) | Mortality rate (mice; total dose 50 mg/kg) | IC50 (SV40 promoter) [ng/mL] | Anti-inflammatory effect (thickness of the auricle) [5] | solubility [6] [µg/mL] | Tumor growth inhibition rate IR ([7]; total dose 100 mg/kg) | Tumor growth inhibition rate IR ([7]; total dose 200 mg/kg)
1 | COc1cc2c3c(c4ccc(O)cc4c2cc1OC)C[C@@H]1CCCN1C3.Cl [Compound 11, (S)-6,7-dimethoxy-9,10,11,12,12a,13-hexahydro-9a-aza-cyclopenta[b]triphenylene-3-ol hydrochloride] | 1.2 | 52.1** % | 64.6** % | 0.024 | 3.8 | 0.62 | 0/5 | 0/5 | > 10 | inhibiting TPA-induced ear edema in a dose-dependent manner | 4000 | – | –
2 | COc1cc2c3c(c4ccc(O)cc4c2cc1OC)C[C@H]1CCCN1C3.Cl [Compound 12, (R)-6,7-dimethoxy-9,10,11,12,12a,13-hexahydro-9a-aza-cyclopenta[b]triphenylene-3-ol hydrochloride] | 18.1 | 25.3% | 58.8** % | 12.7 | 50.4 | 50.4 | 0/5 | 0/5 | > 10000 | – | – | – | –
3 | Cl.Oc1ccc2c3c(c4cc5c(cc4c2c1)OCO5)CN1CCC[C@H]1C3 [Compound 13, (S)-6,7-methylenedioxy-9,10,11,12,12a,13-hexahydro-9a-aza-cyclopenta[b]triphenylene-3-ol hydrochloride] | 48.4 | 45.6* % | 31.5% | 48.2 | 38.7 | 260 | 0/5 | 0/5 | > 10000 | – | – | – | –
4 | COc1cc2c3c(c4ccc(O)cc4c2cc1OC)CN1CCC[C@H]1[C@H]3O.Cl [Compound 15, (12aS,13S)-2,3-dimethoxy-9,10,11,12,12a,13-hexahydro-9a-aza-cyclopenta[b]triphenylene-6,13-diol hydrochloride] | 2 | – | – | 34 | 4.2 | 56.6 | 0/5 | 0/5 | > 10000 | – | – | – | –
5 | (S)-6,7-dimethoxy-9,10,11,12,12a,13-hexahydro-9a-aza-cyclopenta[b]triphenylene-3-ol methanesulfonate [Compound 16] | – | – | – | – | – | – | – | – | – | – | – | 35.7*** % | 48.7*** %
